Measurements as given in ChEMBL document CHEMBL5236580, “Blocking Non-enzymatic Functions by PROTAC-Mediated Targeted Protein Degradation” (J Med Chem, 2022).

Experiments:
[1] = molecular target: T1, Histone-lysine N-methyltransferase EZH2 (Homo sapiens, UniProt Q15910); assay: Induction of degradation of EZH2 in human EOL1 cells; type: cell-based
Target sequence in this assay (Q15910 whole entry): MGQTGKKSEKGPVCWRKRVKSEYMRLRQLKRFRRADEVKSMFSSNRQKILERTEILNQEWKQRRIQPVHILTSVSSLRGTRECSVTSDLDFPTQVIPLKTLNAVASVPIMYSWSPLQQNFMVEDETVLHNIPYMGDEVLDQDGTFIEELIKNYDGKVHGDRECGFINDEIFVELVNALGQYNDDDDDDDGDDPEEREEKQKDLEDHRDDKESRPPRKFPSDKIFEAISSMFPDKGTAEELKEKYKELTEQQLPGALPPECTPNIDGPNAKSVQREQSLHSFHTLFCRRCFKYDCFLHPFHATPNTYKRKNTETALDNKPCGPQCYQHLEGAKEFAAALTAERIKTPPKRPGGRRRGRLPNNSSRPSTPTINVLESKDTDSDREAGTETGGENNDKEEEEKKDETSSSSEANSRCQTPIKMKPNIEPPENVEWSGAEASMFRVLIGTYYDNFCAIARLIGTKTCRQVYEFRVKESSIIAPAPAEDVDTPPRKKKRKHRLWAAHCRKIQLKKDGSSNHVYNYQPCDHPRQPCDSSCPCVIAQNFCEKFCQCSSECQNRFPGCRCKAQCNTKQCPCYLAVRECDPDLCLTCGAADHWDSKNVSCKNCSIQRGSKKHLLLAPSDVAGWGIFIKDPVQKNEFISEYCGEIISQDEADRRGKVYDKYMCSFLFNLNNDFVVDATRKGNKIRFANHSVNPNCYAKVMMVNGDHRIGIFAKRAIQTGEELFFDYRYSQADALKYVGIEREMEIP

[2] = molecular target: T1, Histone-lysine N-methyltransferase EZH2; assay: Inhibition of EZH2 (unknown origin)
Target sequence in this assay (Q15910 whole entry): as above

[3] = molecular target: T1, Histone-lysine N-methyltransferase EZH2; assay: Induction of degradation of EZH2 in human MV4-11 cells; type: cell-based
Target sequence in this assay (Q15910 whole entry): as above

[4] = molecular target: T1, Histone-lysine N-methyltransferase EZH2; assay: Induction of degradation of EZH2 in human MV4-11 cells assessed as maximum degradation relative to control; type: cell-based
Target sequence in this assay (Q15910 whole entry, looked up): as the sequence (Q15910 whole entry) above

[5] = molecular target: T1, Histone-lysine N-methyltransferase EZH2; assay: Induction of degradation of EZH2 in human EOL1 cells assessed as maximum degradation relative to control; type: cell-based
Target sequence in this assay (Q15910 whole entry, looked up): as the sequence (Q15910 whole entry) above

[6] = system: JeKo-1; assay: Antiproliferative activity against human JeKo-1 cells harbouring p53 mutant; type: functional, cell-based
[7] = Antiproliferative activity against human MINO cells harbouring p53 mutant; type: functional, cell-based
[8] = Antitumor activity against human MDSC cells xenografted in BALB/c mouse assessed as tumor growth inhibition relative to control; type: functional, Myeloid-derived suppressor cell
[9] = Growth inhibition of human Triple-negative breast cancer cells; type: functional; settings: Triple-negative breast cancer cell
[10] = molecular target: Peptidyl-prolyl cis-trans isomerase FKBP1A (Homo sapiens, UniProt P62942); assay: Induction of degradation of FKBP12 (unknown origin)
Chain of Peptidyl-prolyl cis-trans isomerase FKBP1A (P62942 whole entry): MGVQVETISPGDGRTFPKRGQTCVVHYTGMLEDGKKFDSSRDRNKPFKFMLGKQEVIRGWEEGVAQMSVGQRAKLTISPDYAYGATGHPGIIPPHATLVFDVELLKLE

[11] = molecular target: T2, von Hippel-Lindau disease tumor suppressor/Focal adhesion kinase 1 (Mus musculus) (UniProt P34152+P40338); assay: In vivo protac activity at VHL/FAK xenografted in CD-1 mouse liver assessed as reduct ion in FAK level at 80 mg/kg, sc measured after 96 hrs relative to control; type: functional, organism-based
T2 sequence (P34152 whole entry, looked up): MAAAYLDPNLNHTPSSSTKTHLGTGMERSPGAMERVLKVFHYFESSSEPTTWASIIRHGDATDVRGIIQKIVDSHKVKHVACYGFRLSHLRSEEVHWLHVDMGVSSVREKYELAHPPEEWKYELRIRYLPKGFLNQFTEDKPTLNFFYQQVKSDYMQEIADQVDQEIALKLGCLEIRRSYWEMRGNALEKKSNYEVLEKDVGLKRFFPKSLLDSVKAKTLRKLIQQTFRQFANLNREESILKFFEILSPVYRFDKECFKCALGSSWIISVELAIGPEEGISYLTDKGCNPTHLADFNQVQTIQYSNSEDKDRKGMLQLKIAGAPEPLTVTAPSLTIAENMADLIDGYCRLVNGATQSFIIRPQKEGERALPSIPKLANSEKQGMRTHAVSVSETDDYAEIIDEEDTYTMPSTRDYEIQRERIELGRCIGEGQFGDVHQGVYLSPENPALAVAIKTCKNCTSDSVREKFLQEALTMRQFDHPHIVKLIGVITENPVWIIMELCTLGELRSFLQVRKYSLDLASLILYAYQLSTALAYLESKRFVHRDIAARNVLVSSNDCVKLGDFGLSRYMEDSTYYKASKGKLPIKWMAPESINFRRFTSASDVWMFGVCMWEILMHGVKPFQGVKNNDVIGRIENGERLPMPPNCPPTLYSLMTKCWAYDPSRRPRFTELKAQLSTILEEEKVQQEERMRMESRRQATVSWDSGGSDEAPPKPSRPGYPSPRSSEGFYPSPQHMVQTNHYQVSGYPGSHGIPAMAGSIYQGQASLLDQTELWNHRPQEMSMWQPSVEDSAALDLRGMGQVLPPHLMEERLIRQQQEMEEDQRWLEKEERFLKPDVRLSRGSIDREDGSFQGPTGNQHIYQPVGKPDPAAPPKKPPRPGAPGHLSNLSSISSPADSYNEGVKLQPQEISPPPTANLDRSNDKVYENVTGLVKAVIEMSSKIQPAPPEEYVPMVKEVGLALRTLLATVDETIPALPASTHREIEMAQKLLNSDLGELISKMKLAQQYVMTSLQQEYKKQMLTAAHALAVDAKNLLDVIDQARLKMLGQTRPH
T2 sequence (P40338 whole entry, looked up): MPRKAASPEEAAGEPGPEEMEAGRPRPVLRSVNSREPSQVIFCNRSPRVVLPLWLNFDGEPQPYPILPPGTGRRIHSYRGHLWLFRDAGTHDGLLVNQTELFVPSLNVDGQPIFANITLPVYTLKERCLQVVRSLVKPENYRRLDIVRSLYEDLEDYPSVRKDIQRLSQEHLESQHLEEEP

[12] = molecular target: T2, von Hippel-Lindau disease tumor suppressor/Focal adhesion kinase 1 (Mus musculus); assay: In vivo protac activity at VHL/FAK xenografted in CD-1 mouse liver assessed as increased in FAK degradation at 80 mg/kg, sc incubated for 18 hrs relative to control; type: functional, organism-based
[13] = molecular target: T3, Focal adhesion kinase 1 (Homo sapiens, UniProt Q05397); assay: Induction of degradation of Fak in human PC-3 cells assessed as maximum degradation relative to control; type: cell-based
[14] = molecular target: T3, Focal adhesion kinase 1; assay: Induction of degradation of Fak in human PC-3 cells; type: cell-based
Target sequence in this assay (Q05397 whole entry): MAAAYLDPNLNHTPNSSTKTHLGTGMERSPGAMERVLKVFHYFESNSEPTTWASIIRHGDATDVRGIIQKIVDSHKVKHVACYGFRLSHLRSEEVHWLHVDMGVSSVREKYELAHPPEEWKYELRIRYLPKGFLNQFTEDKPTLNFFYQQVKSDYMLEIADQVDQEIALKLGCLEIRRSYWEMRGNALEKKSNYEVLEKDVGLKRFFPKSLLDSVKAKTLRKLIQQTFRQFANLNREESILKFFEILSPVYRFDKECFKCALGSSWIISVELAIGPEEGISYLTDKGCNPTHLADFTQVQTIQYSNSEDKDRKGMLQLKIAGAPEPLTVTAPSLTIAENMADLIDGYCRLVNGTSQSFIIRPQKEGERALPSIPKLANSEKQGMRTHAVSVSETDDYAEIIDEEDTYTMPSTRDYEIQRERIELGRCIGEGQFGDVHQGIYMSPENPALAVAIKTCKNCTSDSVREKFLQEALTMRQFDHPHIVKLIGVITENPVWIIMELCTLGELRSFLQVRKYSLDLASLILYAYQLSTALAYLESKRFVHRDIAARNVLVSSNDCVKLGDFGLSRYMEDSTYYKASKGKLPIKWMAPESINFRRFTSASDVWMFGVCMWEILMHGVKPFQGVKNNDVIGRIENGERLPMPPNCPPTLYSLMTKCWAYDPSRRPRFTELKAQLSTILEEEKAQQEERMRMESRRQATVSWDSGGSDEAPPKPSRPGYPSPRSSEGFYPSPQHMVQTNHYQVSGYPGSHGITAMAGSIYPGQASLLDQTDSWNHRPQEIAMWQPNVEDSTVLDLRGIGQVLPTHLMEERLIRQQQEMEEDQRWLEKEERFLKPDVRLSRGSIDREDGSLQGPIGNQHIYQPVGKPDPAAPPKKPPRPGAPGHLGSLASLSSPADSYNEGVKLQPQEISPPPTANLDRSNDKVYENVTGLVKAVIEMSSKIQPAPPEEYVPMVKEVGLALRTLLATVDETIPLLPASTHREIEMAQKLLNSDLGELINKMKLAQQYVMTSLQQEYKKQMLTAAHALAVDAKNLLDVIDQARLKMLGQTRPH

[15] = molecular target: Protein cereblon/Protein deacetylase HDAC6 (Homo sapiens, UniProt Q96SW2+Q9UBN7); assay: PROTAC activity at CRBN/HDAC6 in human K562 cells assessed as degradation of HDAC6; type: cell-based
[16] = molecular target: Protein cereblon/Protein deacetylase HDAC6 (Homo sapiens) (UniProt Q9UBN7+Q96SW2); assay: PROTAC activity at CRBN/HDAC6 in human K562 cells assessed as degradation of HDAC6 relative to control; type: cell-based
[17] = molecular target: T4, Nicotinamide phosphoribosyltransferase (Homo sapiens, UniProt P43490); assay: Inhibition of NAMPT (unknown origin)
Target sequence in this assay (P43490 whole entry): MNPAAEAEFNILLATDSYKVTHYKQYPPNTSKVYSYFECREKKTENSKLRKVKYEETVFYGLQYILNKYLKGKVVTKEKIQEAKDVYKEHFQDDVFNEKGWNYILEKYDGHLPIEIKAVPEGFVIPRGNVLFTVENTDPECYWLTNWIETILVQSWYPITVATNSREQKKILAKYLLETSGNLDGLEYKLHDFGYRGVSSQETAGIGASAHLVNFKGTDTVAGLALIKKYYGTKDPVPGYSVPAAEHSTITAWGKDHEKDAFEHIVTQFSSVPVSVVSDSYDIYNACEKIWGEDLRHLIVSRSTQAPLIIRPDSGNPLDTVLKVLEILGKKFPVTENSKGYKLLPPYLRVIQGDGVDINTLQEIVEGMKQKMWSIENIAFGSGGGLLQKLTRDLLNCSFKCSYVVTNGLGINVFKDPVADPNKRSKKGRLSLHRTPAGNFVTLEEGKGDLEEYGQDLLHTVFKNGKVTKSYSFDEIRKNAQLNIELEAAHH

[18] = molecular target: T4, Nicotinamide phosphoribosyltransferase; assay: Induction of degradation NAMPT (unknown origin) assessed as maximum degradation relative to control
Target sequence in this assay (P43490 whole entry, looked up): as the sequence (P43490 whole entry) above

[19] = molecular target: T4, Nicotinamide phosphoribosyltransferase; assay: Induction of degradation NAMPT (unknown origin)
Target sequence in this assay (P43490 whole entry): as above

[20] = molecular target: Ubiquitin carboxyl-terminal hydrolase 7 (Homo sapiens, UniProt Q93009); assay: Induction of degradation of USP7 (unknown origin)
Chain of Ubiquitin carboxyl-terminal hydrolase 7 (Q93009 whole entry): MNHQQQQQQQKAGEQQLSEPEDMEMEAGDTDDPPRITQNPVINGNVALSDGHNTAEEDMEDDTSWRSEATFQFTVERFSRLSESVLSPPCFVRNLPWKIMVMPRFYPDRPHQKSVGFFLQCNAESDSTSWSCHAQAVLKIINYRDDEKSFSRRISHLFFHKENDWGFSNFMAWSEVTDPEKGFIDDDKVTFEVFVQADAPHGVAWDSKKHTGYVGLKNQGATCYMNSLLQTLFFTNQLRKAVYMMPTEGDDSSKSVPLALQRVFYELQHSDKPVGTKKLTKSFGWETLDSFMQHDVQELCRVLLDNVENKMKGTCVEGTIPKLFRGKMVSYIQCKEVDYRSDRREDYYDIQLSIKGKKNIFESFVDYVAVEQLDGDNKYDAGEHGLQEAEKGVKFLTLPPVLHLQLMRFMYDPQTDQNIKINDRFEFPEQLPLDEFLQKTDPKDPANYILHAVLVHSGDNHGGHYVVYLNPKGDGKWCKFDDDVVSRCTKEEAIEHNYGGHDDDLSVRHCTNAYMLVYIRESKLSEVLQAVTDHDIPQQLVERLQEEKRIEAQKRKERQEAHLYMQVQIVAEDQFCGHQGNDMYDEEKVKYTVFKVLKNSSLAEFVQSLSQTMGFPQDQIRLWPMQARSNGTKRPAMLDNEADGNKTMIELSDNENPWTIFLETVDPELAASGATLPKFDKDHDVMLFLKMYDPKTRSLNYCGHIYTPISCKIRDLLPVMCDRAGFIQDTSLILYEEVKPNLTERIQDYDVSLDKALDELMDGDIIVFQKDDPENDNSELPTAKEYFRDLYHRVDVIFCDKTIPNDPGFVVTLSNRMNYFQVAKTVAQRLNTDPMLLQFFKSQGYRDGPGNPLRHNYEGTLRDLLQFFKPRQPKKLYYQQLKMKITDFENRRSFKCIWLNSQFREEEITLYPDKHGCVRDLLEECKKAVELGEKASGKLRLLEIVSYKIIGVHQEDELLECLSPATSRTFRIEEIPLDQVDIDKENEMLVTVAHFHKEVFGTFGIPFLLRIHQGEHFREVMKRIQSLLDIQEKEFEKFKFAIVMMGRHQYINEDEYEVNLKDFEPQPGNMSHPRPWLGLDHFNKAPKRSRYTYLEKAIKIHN

[21] = Antiproliferative activity against human Triple-negative breast cancer cells assessed as cell growth inhibition; type: functional
[22] = Antiproliferative activity against human TNBC ductal adenocarcinoma cells assessed as cell growth inhibition; type: functional; settings: Triple-negative breast cancer cell
[23] = molecular target: T1, Histone-lysine N-methyltransferase EZH2; assay: Induction of degradation of EZH2 degradation in human MDA-MB-453 cells; type: cell-based
Target sequence in this assay (Q15910 whole entry): as the sequence (Q15910 whole entry) above

[24] = system: MV4-11; assay: Induction of cell cycle arrest in human MV4-11 cells assessed as accumulation of cells at G2/M phase measured after 12 hrs; type: functional, cell-based; settings: MV4-11, 12 h
[25] = molecular target: T5, Aurora kinase A (Homo sapiens, UniProt O14965); assay: Induction of degradation of AURORA-A in human MV4-11 cells; type: cell-based
T5 sequence (O14965 whole entry): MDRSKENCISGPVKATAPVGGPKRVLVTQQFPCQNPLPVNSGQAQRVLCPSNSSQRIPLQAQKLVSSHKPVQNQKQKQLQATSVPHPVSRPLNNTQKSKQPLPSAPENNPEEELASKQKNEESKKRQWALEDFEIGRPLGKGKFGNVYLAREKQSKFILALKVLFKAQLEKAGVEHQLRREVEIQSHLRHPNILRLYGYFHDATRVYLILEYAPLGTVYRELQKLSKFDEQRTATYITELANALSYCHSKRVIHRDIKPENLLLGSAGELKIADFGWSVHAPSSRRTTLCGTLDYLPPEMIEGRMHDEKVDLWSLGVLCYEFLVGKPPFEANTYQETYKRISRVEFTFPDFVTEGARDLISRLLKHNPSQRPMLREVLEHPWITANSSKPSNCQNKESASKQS

Cc1cc(C)c(CNC(=O)c2cc(-c3ccc(N4CCN(CCNC(=O)CCOCCNc5cccc6c5C(=O)N(C5CCC(=O)NC5=O)C6=O)CC4)nc3)cc3c2cnn3C(C)C)c(=O)[nH]1 (centres undefined)
EC50 [1]: 200 nM | IC50 [2]: 7 nM | EC50 [3]: 1500 nM | Emax [4]: 68% | Emax [5]: 82%

C[C@H](CC(=O)N1CCC(O)(Cn2cnc3c(-c4ccc(CN)cc4)n(C)nc3c2=O)CC1)c1ccccc1
IC50 [6]: > 20000 nM | IC50 [7]: > 20000 nM

O=S(=O)(c1ccc(NC(=S)NCc2cccnc2)cc1)N1CCN(Cc2ccccc2)CC1
TGI [8]: 40%

CCN(c1cc(-c2ccc(CN3CCN(C(=O)CCCCCCCC(=O)N[C@H](C(=O)N4C[C@H](OCc5ccccc5)C[C@H]4C(=O)NCc4ccc(-c5scnc5C)cc4)C(C)(C)C)CC3)cc2)cc(C(=O)NCc2c(C)cc(C)[nH]c2=O)c1C)C1CCOCC1
IC50 [2]: 13 nM | GI50 [9]: > 10 µM

COC1C[C@H](C[C@@H](C)[C@@H]2CC(=O)C(C)/C=C(\C)[C@@H](O)[C@@H](OC)C(=O)[C@H](C)C[C@H](C)/C=C/C=C/C=C(\C)[C@@H](OC)C[C@@H]3CC[C@@H](C)[C@](O)(O3)C(=O)C(=O)N3CCCC[C@H]3C(=O)O2)CCC1OCCOCc1cn(CCOCCOCCNc2cccc3c2C(=O)N(C2CCC(=O)NC2=O)C3=O)nn1 (some centres undefined)
EC50 [10]: 0.27 nM

CNC(=O)c1ccccc1Nc1cc(Nc2ccc(N3CCN(CC(=O)N[C@H](C(=O)N4C[C@H](O)C[C@H]4C(=O)N[C@@H](C)c4ccc(-c5scnc5C)cc4)C(C)(C)C)CC3)cc2OC)ncc1C(F)(F)F
Emax [11]: 60% | Emax [12]: 85%

Cc1ncsc1-c1ccc(CNC(=O)[C@@H]2C[C@@H](O)CN2C(=O)[C@@H](NC(=O)CCOCCOc2ccc(Nc3ncc(C(F)(F)F)c(NCc4cccc(N(C)S(C)(=O)=O)c4)n3)cc2)C(C)(C)C)cc1
Emax [13]: 99% | EC50 [14]: 3 nM

O=C(CCCO/N=C1/C(=C2/C(=O)N(Cc3cn(CCOCCNc4cccc5c4C(=O)C(N4CCC(=O)NC4=O)C5=O)nn3)c3ccccc32)Nc2ccccc21)NO (centres undefined)
EC50 [15]: 109 nM | Emax [16]: 88%

Cc1ncsc1-c1ccc(C(C)NC(=O)C2CC(O)CN2C(=O)C(NC(=O)COCCOCCOCCOCCNC(=O)c2ccc(CN3CCN(S(=O)(=O)c4ccc(NC(=S)NCc5ccccc5)cc4)CC3)cc2)C(C)(C)C)cc1 (centres undefined)
IC50 [17]: 9.5 nM | Emax [18]: 90% | EC50 [19]: 7.1 nM | TGI [8]: 80%

C[C@H](CC(=O)N1CCC(O)(Cn2cnc3c(-c4ccc(CNCCCCCCCCCCCNc5cccc6c5C(=O)N(C5CCC(=O)NC5=O)C6=O)cc4)n(C)nc3c2=O)CC1)c1ccccc1 (some centres undefined)
IC50 [6]: 1030 nM | IC50 [7]: 1180 nM | EC50 [20]: 33 nM

CCN(c1cc(-c2ccc(CN3CCN(C(=O)CCCCCCCC(=O)N[C@H](C(=O)N4C[C@H](O)C[C@H]4C(=O)NCc4ccc(-c5scnc5C)cc4)C(C)(C)C)CC3)cc2)cc(C(=O)NCc2c(C)cc(C)[nH]c2=O)c1C)C1CCOCC1
GI50 [21]: 1700 nM | GI50 [22]: 1400 nM | EC50 [23]: 140 nM

COc1cc(Nc2ncc3c(n2)-c2ccc(Cl)cc2C(c2c(F)cccc2OC)=NC3)ccc1C(=O)O [ALISERTIB]
IC50 [24]: 1.2 nM

COc1cc(Nc2ncc3c(n2)-c2ccc(Cl)cc2C(c2c(F)cccc2OC)=NC3)ccc1C(=O)NCCOCCOCCNC(=O)COc1cccc2c1C(=O)N(C1CCC(=O)NC1=O)C2=O (centres undefined)
EC50 [25]: 28 nM
